Experimental findings from ChEMBL document CHEMBL1255169, “Synthesis, structure-affinity relationships, and radiolabeling of selective high-affinity 5-HT4 receptor ligands as prospective imaging probes for positron emission tomography” (J Med Chem, 2010) are described below.

In experiment [1] the target is Beta-1 adrenergic receptor (Rattus norvegicus, UniProt P18090). The experiment is described as follows: Binding affinity to rat adrenergic beta-1 receptor.
Experiment [2] deals with Sodium-dependent noradrenaline transporter (Homo sapiens, UniProt P23975). Description: Binding affinity to human NET.
Experiment [3] has as its target T1, 5-hydroxytryptamine receptor 4 (Homo sapiens, UniProt Q13639). Description: Inverse agonist activity at 5HT4 receptor expressed in HEK293/L9 cells by cAMP assay. The class given is functional, cell-based.
The target of experiment [4] is Sigma non-opioid intracellular receptor 1 (Rattus norvegicus, UniProt Q9R0C9). The experiment is described as follows: Binding affinity to rat sigma 1 receptor.
Experiment [5] concerns the target Muscarinic acetylcholine receptor M2 (Homo sapiens, UniProt P08172). Description: Binding affinity to human muscarinic M2 receptor.
For experiment [6], the target named is 5-hydroxytryptamine receptor 2B (Homo sapiens, UniProt P41595). Description: Binding affinity to human 5-HT2B receptor.
In experiment [7] the target is Muscarinic acetylcholine receptor M1 (Homo sapiens, UniProt P11229). Description: Binding affinity to human muscarinic M1 receptor.
For another experiment, the target named is D(1B) dopamine receptor (Homo sapiens, UniProt P21918). Description: Binding affinity to human dopamine D5 receptor.
Experiment [8] deals with T2, 5-hydroxytryptamine receptor 2C (Homo sapiens, UniProt P28335).
T2 sequence (P28335 whole entry): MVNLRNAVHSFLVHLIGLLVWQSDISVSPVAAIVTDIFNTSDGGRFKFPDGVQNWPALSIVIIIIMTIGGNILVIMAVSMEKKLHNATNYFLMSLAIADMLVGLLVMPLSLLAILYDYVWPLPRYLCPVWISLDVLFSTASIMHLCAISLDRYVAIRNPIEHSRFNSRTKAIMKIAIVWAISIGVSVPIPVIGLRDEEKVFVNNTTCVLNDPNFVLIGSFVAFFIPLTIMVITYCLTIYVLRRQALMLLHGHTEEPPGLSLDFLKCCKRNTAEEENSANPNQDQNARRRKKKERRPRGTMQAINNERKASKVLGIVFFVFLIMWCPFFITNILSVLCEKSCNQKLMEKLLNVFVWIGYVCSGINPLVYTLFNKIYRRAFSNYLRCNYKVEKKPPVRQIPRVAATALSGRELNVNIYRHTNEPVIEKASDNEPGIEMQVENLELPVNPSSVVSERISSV
The experiment is described as follows: Binding affinity to human 5-HT2C receptor.

Experiment [9] concerns the target 5-hydroxytryptamine receptor 1B (Homo sapiens, UniProt P28222). The experiment is described as follows: Binding affinity to human 5-HT1B receptor.
Experiment [10] addresses 5-hydroxytryptamine receptor 6 (Homo sapiens, UniProt P50406). Description: Binding affinity to human 5-HT6 receptor.
The target in experiment [11] is T1, 5-hydroxytryptamine receptor 4. Description: Agonist activity at 5HT4 receptor expressed in HEK293/L9 cells by cAMP assay. The class given is functional, cell-based.
Experiment [12] has as its target T3, Alpha-2C adrenergic receptor (Homo sapiens, UniProt P18825).
T3 sequence (P18825 whole entry): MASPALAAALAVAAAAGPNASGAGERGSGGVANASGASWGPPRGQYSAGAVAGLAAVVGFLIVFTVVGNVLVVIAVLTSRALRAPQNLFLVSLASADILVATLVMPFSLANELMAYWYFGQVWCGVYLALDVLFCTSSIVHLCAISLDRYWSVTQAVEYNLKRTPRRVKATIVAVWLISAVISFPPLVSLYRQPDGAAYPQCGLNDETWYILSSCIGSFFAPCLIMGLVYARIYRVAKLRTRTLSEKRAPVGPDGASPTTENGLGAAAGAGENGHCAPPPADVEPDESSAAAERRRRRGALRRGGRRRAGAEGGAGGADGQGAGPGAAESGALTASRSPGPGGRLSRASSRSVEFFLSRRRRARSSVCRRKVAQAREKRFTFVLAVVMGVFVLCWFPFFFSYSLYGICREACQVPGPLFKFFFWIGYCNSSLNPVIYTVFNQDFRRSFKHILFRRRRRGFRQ
Description: Binding affinity to human adrenergic Alpha-2C receptor.

Experiment [13] in a line: Binding affinity to BZP receptor in rat brain. The class given is tissue-based.
The target of experiment [14] is Kappa-type opioid receptor (Homo sapiens, UniProt P41145). Description: Binding affinity to human kappa opioid receptor.
Experiment [15] in a line: Binding affinity to rat sigma 2 receptor.
Another experiment deals with T4, D(4) dopamine receptor (Rattus norvegicus, UniProt P30729).
T4 sequence (P30729 whole entry): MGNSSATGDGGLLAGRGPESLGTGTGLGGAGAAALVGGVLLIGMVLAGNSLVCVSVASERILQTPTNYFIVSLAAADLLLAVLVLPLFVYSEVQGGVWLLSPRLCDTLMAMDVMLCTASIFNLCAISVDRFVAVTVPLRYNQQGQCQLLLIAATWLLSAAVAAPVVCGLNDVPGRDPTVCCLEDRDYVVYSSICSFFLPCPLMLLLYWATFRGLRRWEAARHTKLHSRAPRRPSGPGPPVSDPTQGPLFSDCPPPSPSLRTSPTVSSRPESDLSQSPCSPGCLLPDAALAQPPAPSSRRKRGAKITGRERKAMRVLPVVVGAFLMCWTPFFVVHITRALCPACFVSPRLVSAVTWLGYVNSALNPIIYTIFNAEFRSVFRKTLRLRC
Description: Binding affinity to rat dopamine D4 receptor.

The next experiment concerns the target Histamine H3 receptor (Cavia porcellus, UniProt Q9JI35). Description: Binding affinity to guinea pig histamine H3 receptor.
For the next experiment, the target named is D(3) dopamine receptor (Rattus norvegicus, UniProt P19020). The experiment is described as follows: Binding affinity to rat dopamine D3 receptor.
Experiment [16] deals with 5-hydroxytryptamine receptor 1E (Homo sapiens, UniProt P28566). Description: Binding affinity to human 5-HT1E receptor.
The target in experiment [17] is T1, 5-hydroxytryptamine receptor 4. Description: Antagonist activity at 5HT4 receptor expressed in HEK293/L9 cells by cAMP assay. The class given is functional, cell-based.

Activity calls are given as the source filed them. No cut-off for these calls is given here. Where only a bound is given, the exact number is not on record here.

T1 sequence (Q13639 whole entry): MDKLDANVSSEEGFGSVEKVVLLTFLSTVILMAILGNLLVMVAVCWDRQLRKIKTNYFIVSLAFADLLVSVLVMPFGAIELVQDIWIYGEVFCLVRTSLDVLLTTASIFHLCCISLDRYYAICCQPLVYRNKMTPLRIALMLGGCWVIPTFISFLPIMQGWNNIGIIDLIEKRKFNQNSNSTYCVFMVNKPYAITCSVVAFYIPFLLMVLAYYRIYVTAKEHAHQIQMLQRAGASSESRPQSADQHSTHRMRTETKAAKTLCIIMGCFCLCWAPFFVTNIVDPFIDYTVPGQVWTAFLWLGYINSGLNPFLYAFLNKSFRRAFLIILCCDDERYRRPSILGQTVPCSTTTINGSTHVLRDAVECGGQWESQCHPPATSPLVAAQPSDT
Chain of Sodium-dependent noradrenaline transporter (P23975 whole entry): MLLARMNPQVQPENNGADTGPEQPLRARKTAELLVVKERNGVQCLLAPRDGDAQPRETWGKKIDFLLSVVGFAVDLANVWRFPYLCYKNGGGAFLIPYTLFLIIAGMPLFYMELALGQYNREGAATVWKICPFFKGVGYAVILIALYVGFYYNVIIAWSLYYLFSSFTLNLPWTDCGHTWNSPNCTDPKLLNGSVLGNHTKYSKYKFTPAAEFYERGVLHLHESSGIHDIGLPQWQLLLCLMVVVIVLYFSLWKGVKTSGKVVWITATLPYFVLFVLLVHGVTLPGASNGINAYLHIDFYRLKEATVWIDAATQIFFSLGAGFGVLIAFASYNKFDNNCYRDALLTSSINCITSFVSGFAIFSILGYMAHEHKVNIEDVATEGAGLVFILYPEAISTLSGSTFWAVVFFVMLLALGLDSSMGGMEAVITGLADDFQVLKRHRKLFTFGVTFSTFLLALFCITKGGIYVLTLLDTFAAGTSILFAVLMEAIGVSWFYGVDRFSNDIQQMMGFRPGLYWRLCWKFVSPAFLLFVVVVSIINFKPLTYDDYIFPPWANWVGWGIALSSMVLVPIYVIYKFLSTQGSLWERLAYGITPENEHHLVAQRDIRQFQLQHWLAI
Chain of Beta-1 adrenergic receptor (P18090 whole entry): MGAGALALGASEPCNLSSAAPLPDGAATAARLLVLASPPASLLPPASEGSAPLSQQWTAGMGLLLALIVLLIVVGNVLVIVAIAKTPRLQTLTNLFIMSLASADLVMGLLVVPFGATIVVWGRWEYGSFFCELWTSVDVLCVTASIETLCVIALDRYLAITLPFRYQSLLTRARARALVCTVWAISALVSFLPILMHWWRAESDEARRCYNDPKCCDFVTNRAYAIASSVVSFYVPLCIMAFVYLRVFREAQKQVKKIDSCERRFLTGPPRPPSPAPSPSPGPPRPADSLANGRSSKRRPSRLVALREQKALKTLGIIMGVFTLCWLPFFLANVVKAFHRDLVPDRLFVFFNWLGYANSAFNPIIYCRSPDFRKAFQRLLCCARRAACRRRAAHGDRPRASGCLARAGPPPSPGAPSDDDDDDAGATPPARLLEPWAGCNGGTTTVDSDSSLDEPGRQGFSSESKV
Chain of Sigma non-opioid intracellular receptor 1 (Q9R0C9 whole entry): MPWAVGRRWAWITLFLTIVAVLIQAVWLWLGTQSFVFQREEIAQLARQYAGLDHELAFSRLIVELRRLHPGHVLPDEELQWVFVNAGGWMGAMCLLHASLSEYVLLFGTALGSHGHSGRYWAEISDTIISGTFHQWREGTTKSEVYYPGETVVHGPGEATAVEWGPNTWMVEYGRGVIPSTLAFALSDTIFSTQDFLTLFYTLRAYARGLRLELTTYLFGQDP
Chain of D(3) dopamine receptor (P19020 whole entry): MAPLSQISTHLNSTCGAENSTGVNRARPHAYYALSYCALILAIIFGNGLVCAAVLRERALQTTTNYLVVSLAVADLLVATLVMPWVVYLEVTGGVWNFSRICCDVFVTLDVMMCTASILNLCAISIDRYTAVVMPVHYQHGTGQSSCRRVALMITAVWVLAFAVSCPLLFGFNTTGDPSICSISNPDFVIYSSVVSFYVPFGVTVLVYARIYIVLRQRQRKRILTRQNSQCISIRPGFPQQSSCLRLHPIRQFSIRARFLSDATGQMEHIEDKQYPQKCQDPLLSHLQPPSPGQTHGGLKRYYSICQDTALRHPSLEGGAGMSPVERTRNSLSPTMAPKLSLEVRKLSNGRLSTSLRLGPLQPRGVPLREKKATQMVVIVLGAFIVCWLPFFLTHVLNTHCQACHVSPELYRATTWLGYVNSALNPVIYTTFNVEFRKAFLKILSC
Chain of Kappa-type opioid receptor (P41145 whole entry): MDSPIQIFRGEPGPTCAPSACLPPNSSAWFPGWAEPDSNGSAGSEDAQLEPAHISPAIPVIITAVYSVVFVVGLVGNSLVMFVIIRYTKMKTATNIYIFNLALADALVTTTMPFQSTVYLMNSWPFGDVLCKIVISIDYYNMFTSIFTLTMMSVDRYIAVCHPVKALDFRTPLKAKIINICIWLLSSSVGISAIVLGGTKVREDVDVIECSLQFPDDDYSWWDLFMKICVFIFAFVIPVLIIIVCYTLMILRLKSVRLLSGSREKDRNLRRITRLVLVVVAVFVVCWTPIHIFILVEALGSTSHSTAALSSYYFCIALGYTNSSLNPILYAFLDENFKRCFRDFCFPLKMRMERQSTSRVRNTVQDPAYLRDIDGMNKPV
Chain of Muscarinic acetylcholine receptor M2 (P08172 whole entry): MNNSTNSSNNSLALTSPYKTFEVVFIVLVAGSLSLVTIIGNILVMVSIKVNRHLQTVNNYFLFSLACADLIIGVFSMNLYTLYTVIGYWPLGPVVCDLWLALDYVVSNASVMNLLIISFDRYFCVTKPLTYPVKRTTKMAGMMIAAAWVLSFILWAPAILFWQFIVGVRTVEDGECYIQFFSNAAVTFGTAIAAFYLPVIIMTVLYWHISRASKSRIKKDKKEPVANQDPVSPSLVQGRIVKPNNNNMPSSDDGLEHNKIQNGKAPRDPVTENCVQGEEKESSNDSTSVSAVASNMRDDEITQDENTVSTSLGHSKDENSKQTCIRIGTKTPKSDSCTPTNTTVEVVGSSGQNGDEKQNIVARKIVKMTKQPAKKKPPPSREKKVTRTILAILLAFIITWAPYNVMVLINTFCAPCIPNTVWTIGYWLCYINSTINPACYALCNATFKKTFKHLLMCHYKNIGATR
Chain of Muscarinic acetylcholine receptor M1 (P11229 whole entry): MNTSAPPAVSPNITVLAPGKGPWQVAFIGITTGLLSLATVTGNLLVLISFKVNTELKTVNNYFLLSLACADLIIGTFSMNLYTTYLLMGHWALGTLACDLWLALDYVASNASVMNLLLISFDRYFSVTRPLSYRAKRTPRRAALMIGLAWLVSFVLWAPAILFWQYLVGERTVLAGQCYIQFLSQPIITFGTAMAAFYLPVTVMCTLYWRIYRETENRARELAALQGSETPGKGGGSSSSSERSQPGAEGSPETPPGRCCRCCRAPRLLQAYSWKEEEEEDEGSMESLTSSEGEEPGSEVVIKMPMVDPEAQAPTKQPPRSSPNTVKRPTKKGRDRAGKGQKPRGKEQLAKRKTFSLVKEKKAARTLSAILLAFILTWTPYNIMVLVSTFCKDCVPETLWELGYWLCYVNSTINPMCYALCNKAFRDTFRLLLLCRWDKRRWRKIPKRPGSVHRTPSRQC
Chain of 5-hydroxytryptamine receptor 6 (P50406 whole entry): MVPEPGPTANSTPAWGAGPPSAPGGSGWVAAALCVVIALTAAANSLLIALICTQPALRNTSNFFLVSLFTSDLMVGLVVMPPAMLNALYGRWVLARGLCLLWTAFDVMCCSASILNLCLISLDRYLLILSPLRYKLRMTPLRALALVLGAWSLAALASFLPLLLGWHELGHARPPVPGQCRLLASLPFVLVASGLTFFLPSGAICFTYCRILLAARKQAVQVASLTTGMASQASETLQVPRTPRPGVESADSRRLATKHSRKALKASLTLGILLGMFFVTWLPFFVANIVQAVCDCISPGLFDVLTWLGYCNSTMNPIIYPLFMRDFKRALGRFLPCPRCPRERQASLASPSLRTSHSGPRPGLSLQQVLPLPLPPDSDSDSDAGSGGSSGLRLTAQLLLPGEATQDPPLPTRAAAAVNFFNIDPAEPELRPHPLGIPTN
Chain of D(1B) dopamine receptor (P21918 whole entry): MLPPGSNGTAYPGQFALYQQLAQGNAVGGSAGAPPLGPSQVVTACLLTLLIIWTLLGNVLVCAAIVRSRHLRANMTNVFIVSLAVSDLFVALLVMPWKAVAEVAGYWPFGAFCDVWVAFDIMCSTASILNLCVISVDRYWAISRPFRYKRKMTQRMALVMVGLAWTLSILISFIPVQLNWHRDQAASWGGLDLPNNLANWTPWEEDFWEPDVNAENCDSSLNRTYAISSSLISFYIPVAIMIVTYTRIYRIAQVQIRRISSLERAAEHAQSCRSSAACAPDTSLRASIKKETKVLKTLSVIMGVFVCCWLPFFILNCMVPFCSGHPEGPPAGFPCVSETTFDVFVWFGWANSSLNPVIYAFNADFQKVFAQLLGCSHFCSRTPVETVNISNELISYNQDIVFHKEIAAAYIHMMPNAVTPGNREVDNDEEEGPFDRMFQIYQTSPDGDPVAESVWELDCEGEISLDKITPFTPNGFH
Chain of Histamine H3 receptor (Q9JI35 whole entry): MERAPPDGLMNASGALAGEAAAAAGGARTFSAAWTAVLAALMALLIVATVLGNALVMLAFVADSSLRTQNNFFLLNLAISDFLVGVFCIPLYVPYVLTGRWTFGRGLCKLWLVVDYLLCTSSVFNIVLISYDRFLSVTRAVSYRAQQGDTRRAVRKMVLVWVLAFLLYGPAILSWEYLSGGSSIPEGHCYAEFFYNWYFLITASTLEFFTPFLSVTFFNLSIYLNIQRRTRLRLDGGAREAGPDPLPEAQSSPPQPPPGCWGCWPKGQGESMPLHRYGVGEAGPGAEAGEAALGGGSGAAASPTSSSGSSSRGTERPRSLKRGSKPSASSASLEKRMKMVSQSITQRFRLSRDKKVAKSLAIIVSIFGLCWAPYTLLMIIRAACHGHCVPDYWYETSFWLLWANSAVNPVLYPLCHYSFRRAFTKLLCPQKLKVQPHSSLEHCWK

With `CCCCN1CCC(COC(=O)c2cc(Cl)c(NC)c3c2OCCO3)CC1`, the inhibition constant Ki in experiment [1] was above 10 µM; in [2], 3.23 µM; in [4], 0.06 µM; in experiment [5] it was 0.433 µM; in [6], 0.066 µM; in experiment [7], above 10 µM. Also, the Ki on D(1B) dopamine receptor is 0.972 µM; in experiment [8] it was 0.685 µM; in experiment [9], 0.82 µM; in [10], 0.489 µM; in experiment [12] it was 0.556 µM; in experiment [13], above 10 µM. In addition, the Ki is above 10 µM in experiment [14]; 0.008 µM in [15]; 0.043 µM on D(4) dopamine receptor; above 10 µM on Histamine H3 receptor; 0.336 µM on D(3) dopamine receptor. In addition, in experiment [3], the Efficacy entry was “Active”. In experiment [11], this molecule showed a concentration giving a half-maximal response (EC50) of 0.0141 µM.
Take `CCCCN1CCC(COC(=O)c2ccc(N)c(OC)c2)CC1`: the Ki in experiment [1] is 4.41 µM; in [2] it was above 10 µM; in [4] it was 0.211 µM; in [5], above 10 µM; in experiment [6], 2.86 µM; in experiment [7], above 10 µM. For the same molecule, the inhibition constant Ki is above 10 µM on D(1B) dopamine receptor; above 10 µM in experiment [8]; above 10 µM in [16]; above 10 µM in experiment [9]; above 10 µM in experiment [10]; 0.989 µM in experiment [12]. Besides, the Ki is above 10 µM in [13]; above 10 µM in experiment [14]; 0.148 µM in experiment [15]; 1.27 µM on D(4) dopamine receptor; 1.65 µM at Histamine H3 receptor; 6.27 µM at D(3) dopamine receptor. Also, the Efficacy entry in [17] is “Active”.
